# Experimental data taken from PMC10931833, “Simultaneous Purification of Human Interferon Alpha-2b and Serum Albumin Using Bioprivileged Fluorinated Ionic Liquid-Based Aqueous Biphasic Systems” (International Journal of Molecular Sciences, 2024).
# Experiments:
# [1] = molecular target: T1, BSA (Bos taurus, UniProt P02769); assay: DSC thermal unfolding of BSA in water and aqueous solutions of ABS phase-forming components; type: physicochemical, bovine; conditions: for Tm / ΔG / ΔHcal / ΔHcal/ΔHvH / ΔHvH / ΔS: 1.0 mg/mL BSA
# T1 construct: purchased Millipore Sigma-Aldrich
# T1 sequence (P02769 25-607): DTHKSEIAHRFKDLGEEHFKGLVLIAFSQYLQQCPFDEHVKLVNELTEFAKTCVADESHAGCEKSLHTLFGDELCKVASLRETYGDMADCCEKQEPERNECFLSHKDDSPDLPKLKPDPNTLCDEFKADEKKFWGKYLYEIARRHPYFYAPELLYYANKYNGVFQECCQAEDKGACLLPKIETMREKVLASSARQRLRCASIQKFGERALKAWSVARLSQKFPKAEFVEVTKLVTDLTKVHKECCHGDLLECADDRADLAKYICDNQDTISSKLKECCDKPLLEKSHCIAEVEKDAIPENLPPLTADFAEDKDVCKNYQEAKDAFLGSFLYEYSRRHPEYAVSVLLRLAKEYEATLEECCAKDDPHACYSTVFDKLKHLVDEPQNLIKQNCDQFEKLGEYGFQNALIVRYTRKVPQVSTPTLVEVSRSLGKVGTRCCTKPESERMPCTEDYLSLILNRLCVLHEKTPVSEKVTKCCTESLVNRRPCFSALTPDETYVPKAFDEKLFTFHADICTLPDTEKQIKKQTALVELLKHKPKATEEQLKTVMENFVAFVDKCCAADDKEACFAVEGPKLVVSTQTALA
# Protocol: Differential scanning calorimetry (DSC) measurements were performed with Nano DSC equipment, as detailed in Section 3, and used to determine the melting temperature (T m ) and enthalpy ( Δ H) of protein unfolding. DSC analyzes changes in the structure and stability of proteins as thermal transitions at the nanoscale. Using DSC to measure heat capacity as a function of the temperature of a well-studied protein such as BSA provides keen insights into folding and unfolding processes, as well as factors affecting stability. Due to the volume and concentration requirements of the DSC technique, and the constraints in available quantities of IFN- α 2b the DSC experiments on the ABS phase-forming components’ effect on the structural properties of proteins were attained only for BSA.
# The T m of BSA, which corresponds to the thermal unfolding transition midpoint, was measured in the absence and presence of the ABS phase-forming components at increasing concentrations (see Figure 1 and Table 2).
# [2] = molecular target: T2, IFN-α2b (Homo sapiens, UniProt P01563); assay: Far-UV CD secondary structure of IFN-α2b (CONTIN-LL deconvolution); type: physicochemical; conditions: 0.125 mg/mL IFN-α2b, 200 mM component, 25 °C
# T2 construct: single non-glycosylated polypeptide chain with a molecular weight of 19 kDa, comprising 165 amino acids; purchased Millipore Sigma-Aldrich SRP4595-100UG; host or cells: E. coli
# T2 sequence (P01563 24-188): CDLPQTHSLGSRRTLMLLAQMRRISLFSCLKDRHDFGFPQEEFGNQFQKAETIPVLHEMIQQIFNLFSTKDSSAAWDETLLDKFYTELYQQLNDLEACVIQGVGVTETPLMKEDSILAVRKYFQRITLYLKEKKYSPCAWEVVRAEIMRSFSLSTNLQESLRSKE
# Text: Circular dichroism (CD) is widely used to study the secondary structures of proteins, peptides and nucleic acids, because it requires a low concentration sample, is a nondestructive method, allows studying a wide range of variables (temperature, pH, etc.), and provides information on the effect of added ligands on protein folding and interactions.
# Circular dichroism (CD) spectra were collected in a 10 mm quartz cuvette and a Chirascan spectropolarimeter (Applied Photophysics, UK) at room temperature. All CD spectra were recorded in the far-UV range of 190 to 260 nm at scan rates of 50 nm/min, with 4 accumulations, and a response time of 3 s; CD spectra were collected. For each CD experiment, two distinct duplicates were acquired and combined. […] Spectral deconvolution was carried out with DichroWeb using the CONTIN-LL deconvolution algorithm with the SMP180 reference set.
# [3] = molecular target: T2, IFN-α2b; assay: CD thermal unfolding (Tm) of IFN-α2b; type: physicochemical; conditions: 0.125 mg/ml IFN-α2b, 200 mM component aqueous solution
# Protocol: The same analyses attained for 208 nm and 192 nm are illustrated in Figures S5 and S6 in the Supplementary Materials. The corresponding T m values are estimated by fitting to a sigmoid with four parameters (one-way ANOVA, significance level of 0.05) and summarized in Table S2 in the Supplementary Materials. The CD T m of 0.125 mg/mL native IFN- α 2b is in good agreement with what was previously reported. […] The estimated T m values are summarized in Table S2 in the Supplementary Materials. The same analysis is attained for 208 nm and 192 nm, as depicted in Figures S5 and S6 in the Supplementary Materials. All the CD T m results are summarized in Table S2 in the Supplementary Materials. The thermal stability assessed by far-UV CD is solely determined through the thermal decay of the alpha-helical structure.
# The same analysis was attained for 208 nm and 192 nm as illustrated in Figure S13 in the Supplementary Materials. The corresponding T m values are depicted in Table 5, and were estimated by fitting a sigmoid with four parameters (one-way ANOVA, with a significance level of 0.05).
# [4] = design: method as in earlier work; conditions: aqueous solution at 25 °C, ref 3 (supplement; main text ref 71), cited from earlier work
# [5] = ITC ([C2C1Im][C4F9SO3]) or conductometry ([N1112(OH)][C4F9SO3])
structure (smiles),measurement,setting,value
CCn1cc[n+](C)c1.O=S(=O)([O-])C(F)(F)C(F)(F)C(F)(F)C(F)(F)F [1-ethyl-3-methylimidazolium perfluorobutane sulfonate],Tm,[1]; 0.1 mM component,75.55 °C
same,ΔG,[1]; 0.1 mM component,17.28 kcal/mol
same,ΔHcal,[1]; 0.1 mM component,120.2 kcal/mol
same,ΔHcal/ΔHvH,[1]; 0.1 mM component,1.028
same,ΔHvH,[1]; 0.1 mM component,117 kcal/mol
same,ΔS,[1]; 0.1 mM component,1.445 KJ/(mol.K)
same,Tm,[1]; 1 mM component,75.62 °C
same,ΔG,[1]; 1 mM component,20.41 kcal/mol
same,ΔHcal,[1]; 1 mM component,141.5 kcal/mol
same,ΔHcal/ΔHvH,[1]; 1 mM component,1.050
same,ΔHvH,[1]; 1 mM component,134.8 kcal/mol
same,ΔS,[1]; 1 mM component,1.700 KJ/(mol.K)
same,Tm,[1]; 5 mM component,80.59 °C
same,ΔG,[1]; 5 mM component,30.02 kcal/mol
same,ΔHcal,[1]; 5 mM component,190.7 kcal/mol
same,ΔHcal/ΔHvH,[1]; 5 mM component,0.967
same,ΔHvH,[1]; 5 mM component,197.2 kcal/mol
same,ΔS,[1]; 5 mM component,2.255 KJ/(mol.K)
same,Tm,[1]; 10 mM component,80.94 °C
same,ΔG,[1]; 10 mM component,29.09 kcal/mol
same,ΔHcal,[1]; 10 mM component,183.6 kcal/mol
same,ΔHcal/ΔHvH,[1]; 10 mM component,1.061
same,ΔHvH,[1]; 10 mM component,173.1 kcal/mol
same,ΔS,[1]; 10 mM component,2.168 KJ/(mol.K)
same,Tm,[1]; 25 mM component,82.57 °C
same,ΔG,[1]; 25 mM component,32.53 kcal/mol
same,ΔHcal,[1]; 25 mM component,200.3 kcal/mol
same,ΔHcal/ΔHvH,[1]; 25 mM component,0.972
same,ΔHvH,[1]; 25 mM component,205.9 kcal/mol
same,ΔS,[1]; 25 mM component,2.354 KJ/(mol.K)
same,Tm,[1]; 55 mM component,84.28 °C
same,ΔG,[1]; 55 mM component,39.89 kcal/mol
same,ΔHcal,[1]; 55 mM component,239.24 kcal/mol
same,ΔHcal/ΔHvH,[1]; 55 mM component,1.105
same,ΔHvH,[1]; 55 mM component,216.5 kcal/mol
same,ΔS,[1]; 55 mM component,2.798 KJ/(mol.K)
same,Tm,[1]; 120 mM component,86.15 °C
same,ΔG,[1]; 120 mM component,33.99 kcal/mol
same,ΔHcal,[1]; 120 mM component,198.6 kcal/mol
same,ΔHcal/ΔHvH,[1]; 120 mM component,1.051
same,ΔHvH,[1]; 120 mM component,189 kcal/mol
same,ΔS,[1]; 120 mM component,2.310 KJ/(mol.K)
same,increase of BSA Tm (DSC),[1]; FIL at the highest concentration (120 mM) vs water,approximately 11 °C
same,Distorted Alpha Helix,[2],0.153
same,Distorted Beta Sheet,[2],0.069
same,Regular Alpha Helix,[2],0.292
same,Regular Beta Sheet,[2],0.05
same,Turns,[2],0.204
same,Unordered,[2],0.232
same,"Tm, Ellipticity 192 nm",[3],53.633 °C
same,1st CAC,[4]; [5],14.40 mM
same,2nd CAC,[4]; [5],34.48 mM
same,3rd CAC,[4]; [5],76.54 mM
same,4th CAC,[4]; ITC,106.09 mM
